# US6949566B2, “Thiazole and oxazole derivatives” (Shionogi & Co. Ltd., priority 2000, dated 2005)
# What was measured:
# Assay type in all cases: biochemical
# MMP-2 = target: T1, MMP-2 (Homo sapiens, UniProt P08253); experiment: Assay for inhibitory activities on MMPs (fluorogenic peptide substrate), MMP-2; conditions: purchased MMP-2; substrate MOCAc-Pro-Leu-Gly-Leu-A2Pr(DNP)-Ala-Arg-NH2
# T1 construct: purchased Calbiochem-Novabiochem International, Inc
# T1 sequence (P08253 110-660): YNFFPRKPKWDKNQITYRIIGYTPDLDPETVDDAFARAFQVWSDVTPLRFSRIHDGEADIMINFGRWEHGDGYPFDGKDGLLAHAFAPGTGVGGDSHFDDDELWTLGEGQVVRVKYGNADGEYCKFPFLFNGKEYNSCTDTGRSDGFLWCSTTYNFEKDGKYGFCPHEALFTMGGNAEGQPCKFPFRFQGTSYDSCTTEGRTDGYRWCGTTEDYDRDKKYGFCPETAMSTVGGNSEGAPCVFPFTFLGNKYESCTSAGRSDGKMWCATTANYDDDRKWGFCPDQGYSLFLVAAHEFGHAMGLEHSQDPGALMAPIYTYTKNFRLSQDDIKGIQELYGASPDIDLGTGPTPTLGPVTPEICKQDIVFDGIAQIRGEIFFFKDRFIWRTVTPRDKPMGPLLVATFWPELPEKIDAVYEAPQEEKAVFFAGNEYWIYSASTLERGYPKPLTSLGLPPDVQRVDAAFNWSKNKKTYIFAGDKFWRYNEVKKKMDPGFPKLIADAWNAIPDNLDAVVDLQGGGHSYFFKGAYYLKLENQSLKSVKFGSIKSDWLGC
# Experimental: MMP-2 was purchased from Calbiochem-Novabiochem International, Inc.
# (§1) The enzymatic activity on MMPs was analyzed by the method described in “C. Graham Knight, Frances Willenbrock and Gillian Murphy: A novel coumarin-labelled peptide for sensitive continuous assays of the matrix metalloproteinases: FEBS LETT., 296, (1992), 263-266”. The substrate MOCAc-Pro-Leu-Gly-Leu-A2Pr(DNP)-Ala-Arg-NH2 was purchased from Peptide Institute, Inc., Osaka, Japan. The measurement of the inhibitory activities (IC50) was carried out by the following four methods;
# (§2) (A) Reaction with substrate, enzyme (MMPs) and inhibitor
# (§3) (B) Reaction with substrate and inhibitor, without enzyme
# (§4) (C) Reaction with substrate and enzyme (MMPs), without inhibitor
# (§5) (D) Reaction with substrate only
# (§6) IC50 values were calculated by using the following formula and each fluorescence values of above four methods (A to D). % inhibition={1−(A−B)/(C−D)}×100 IC50 means the concentration required to inhibit 50% of the enzyme activity.
# MMP-8 = target: T2, MMP-8 (Homo sapiens, UniProt P22894); experiment: Assay for inhibitory activities on MMPs (fluorogenic peptide substrate), MMP-8; conditions: catalytic domain 99Phe-262Gly; substrate MOCAc-Pro-Leu-Gly-Leu-A2Pr(DNP)-Ala-Arg-NH2
# T2 construct: catalytic domain (^99Phe˜^262Gly) was amplified with PCR; His-tag; enterokinase digestion-site; made in house; host or cells: Escherichia coli
# From the text: In regard to MMP-8, catalytic domain (^99Phe˜^262Gly) was amplified with PCR using commercial available Human Bone Marrow cDNA. This was cloned in Escherichia. coli expression vector pTrc99AHE inserted with His-tag sequence and enterokinase digestion-site, induced and expressed by IPTG (Isopropyl-β-D-thiogalactopyranoside) and expressed in a insoluble fraction (Thau F. Ho, M. Walid Qoronfleh, Robert C. Wahl, Trica A. Pulvino, Karen J. Vavra, Joe Falvo, Tracey M. Banks, Patricia G. Brake and Richard B. Ciccarelli: Gene expression, purification and characterization of recombinant human neutrophil collagenase. Gene 146, (1994) 297-301, Prepared by the a improved method of this material). Isolation of MMP-8 from an insoluble fraction was carried out by dissolving in modifier (6M urea) by a usual method and purification with metal chelate chromatography. And then removing modifier (6M urea) with dialysis and refolding of the enzyme spontaneously gave activated MMP-8.
# as §1, §2, §3, §4, §5, §6
# MMP-9 = target: T3, MMP-9 (Homo sapiens, UniProt P14780); experiment: Assay for inhibitory activities on MMPs (fluorogenic peptide substrate), MMP-9; conditions: MMP-9 from HT1080 cells, activated by TPCK-Trypsin; substrate MOCAc-Pro-Leu-Gly-Leu-A2Pr(DNP)-Ala-Arg-NH2
# T3 construct: endogenous in cells; host or cells: HT1080 human fibrosarcoma cells, TPA-stimulated; enzyme purified from conditioned medium
# From the text: MMP-9 was isolated and purified by procedures described in as follows: Yasunori Okada, Yukio Gonoji, Katsumi Naka, Katsuro Tomita, Isao Nakanishi, Kazushi Iwata, Kyoko Yamashita, and Taro Hayakawa: Matrix metalloproteinase 9 (92-kDa gelatinase/type IV collagenase) from HT1080 human fibrosarcoma cells. Purification and activation of the precursor and enzymic properties J. Biol. Chem., 1992, 267 21712-21719, in combination with others: 1)Yasunori Okada, Tatsuhisa Morodomi, Jan J, Enghild, ko Suzuki, Atsushi Yasui, Isao Nakanishi, Guy Salvesen and Hideaki Nagase: Matrix metalloproteinase 2 from human rheumatoid synovial fibroblasts. Purification and activation of the precursor and enzymic properties. Eur. J. Biochem. 1990, 194 721-730; 2)Robin V Ward, Rosalind M Hembry, John J Reynolds and Gillian Murphy: The purification of tissue inhibitor of metalloproteinase-2 from its 72 kDa progelatinase complex. Biochem. J. 1991 278 179-187. In detail, human fibrosarcoma ATCC HT1080 cell line was cultured to confluent in Dulbecco's Modified Medium (DMEM) containing 10% fetal-calf serum at 37° C. for 48 hours. Subsequently, the medium of confluent culture was changed to serum-free DMEM medium. To obtain MMP-9, Phorbol-12-myristate-13-acetate (TPA) must be added to this serum-free DMEM medium at a concentration of 50 ng/ml. The TPA treated medium was centrifuged at 3000 rpm for 15 min and the supernatant was concentrated to 450 ml by a Toyo-Roshi UP-20 apparatus with an ultrafiltration membrane. Then, proMMP-9 in this concentrated solution was purified by using columns of Gelatin-Sepharose and Concanavalin A-Sepharose. The pool containing proMMP-9 was dialyzed, concentrated (Toyo-Roshi UP-20) and applied to columns of Sephacryl S-200 and Green A matrix for the separation from TIMPs. The obtained proMMP-9 fraction was activated by TPCK-Trypsin (Final conc. 3 μg/501 μl React Mix.).
# as §1, §2, §3, §4, §5, §6
# MMP-12 = target: T4, MMP-12 (Homo sapiens, UniProt P39900); experiment: Assay for inhibitory activities on MMPs (fluorogenic peptide substrate), MMP-12; conditions: catalytic domain 100Phe-263Gly; substrate MOCAc-Pro-Leu-Gly-Leu-A2Pr(DNP)-Ala-Arg-NH2
# T4 construct: catalytic domain(^100Phe˜^263Gly) was amplified with RT-PCR; His-tag; enterokinase digestion-site; made in house; host or cells: Escherichia coli
# Experimental: (§7) In regard to MMP-12, catalytic domain(^100Phe˜^263Gly) was amplified with RT-PCR from Human Placenta Total RNA. This was cloned in Escherichia. coli expression vector pTrc99AHE inserted with His-tag sequence and enterokinase digestion-site, induced and expressed by IPTG (Isopropyl-β-D-thiogalactopyranoside) and expressed in a insoluble fraction. Isolation of MMP-12 from an insoluble fraction was carried out by dissolving in modifier (6M urea) by a usual method and purification with metal chelate chromatography (Ni Chelateing Sepharose). And then removing modifier (6M urea) with dialysis and refolding of the enzyme spontaneously gave activated MMP-12.
# as §1, §2, §3, §4, §5, §6
# MMP-13 = target: T5, MMP-13 (Homo sapiens, UniProt P45452); experiment: Assay for inhibitory activities on MMPs (fluorogenic peptide substrate), MMP-13; conditions: catalytic domain 104Tyr-267Gly; substrate MOCAc-Pro-Leu-Gly-Leu-A2Pr(DNP)-Ala-Arg-NH2
# T5 construct: catalytic domain (^104Tyr˜^267Gly) was amplified with RT-PCR; His-tag; enterokinase digestion-site; made in house; host or cells: Escherichia coli
# Experimental: as §7, with “MMP-13, mRNA was prepared from carcinoma cell SW1353 derived from human cartilage stimulate by IL-1, TNF and” for “MMP-12,”, “domain (^104Tyr˜^267Gly)” for “domain(^100Phe˜^263Gly)”, “RT-PCR.” for “RT-PCR from Human Placenta Total RNA.”, “MMP-13” for “MMP-12”, “dialyze” for “dialysis”, “MMP-13.” for “MMP-12.”
# as §1, §2, §3, §4, §5, §6
# T2 sequence (P22894 99-262): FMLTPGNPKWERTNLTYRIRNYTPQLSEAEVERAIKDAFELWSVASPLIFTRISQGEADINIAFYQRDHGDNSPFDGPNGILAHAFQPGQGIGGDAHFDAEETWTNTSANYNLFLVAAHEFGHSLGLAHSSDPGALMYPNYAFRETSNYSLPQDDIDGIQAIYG
# T3 sequence (P14780 107-707 limits assumed): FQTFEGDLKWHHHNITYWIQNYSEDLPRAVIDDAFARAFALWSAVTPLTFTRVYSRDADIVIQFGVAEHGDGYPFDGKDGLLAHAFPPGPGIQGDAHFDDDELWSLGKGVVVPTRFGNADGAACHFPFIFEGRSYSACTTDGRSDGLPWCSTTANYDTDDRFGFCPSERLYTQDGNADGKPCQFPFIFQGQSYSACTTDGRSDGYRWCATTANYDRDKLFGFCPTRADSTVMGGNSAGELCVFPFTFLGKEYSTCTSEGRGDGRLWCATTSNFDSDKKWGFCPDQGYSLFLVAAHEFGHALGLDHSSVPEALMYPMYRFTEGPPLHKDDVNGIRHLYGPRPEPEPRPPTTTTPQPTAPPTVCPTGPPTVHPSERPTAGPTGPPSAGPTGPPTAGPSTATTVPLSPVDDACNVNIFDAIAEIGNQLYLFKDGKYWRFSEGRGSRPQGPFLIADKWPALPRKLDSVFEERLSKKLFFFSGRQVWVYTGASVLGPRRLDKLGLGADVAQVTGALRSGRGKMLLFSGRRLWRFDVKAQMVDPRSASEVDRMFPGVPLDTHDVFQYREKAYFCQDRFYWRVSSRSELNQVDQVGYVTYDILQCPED
# T4 sequence (P39900 100-263): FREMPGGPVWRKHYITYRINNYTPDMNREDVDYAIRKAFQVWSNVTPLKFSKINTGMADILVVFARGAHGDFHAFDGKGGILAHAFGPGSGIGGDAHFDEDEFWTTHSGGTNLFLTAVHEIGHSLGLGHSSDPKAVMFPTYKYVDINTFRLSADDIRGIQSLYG
SMILES,IC50 (MMP-2),IC50 (MMP-8),IC50 (MMP-9),IC50 (MMP-12),IC50 (MMP-13)
CC(C)[C@@H](NS(=O)(=O)c1ccc(-c2ncc(-c3ccc(Cl)cc3)s2)cc1)C(=O)O [Compound B-4],1.27 nM,56.9 nM,5.71 nM,3.06 nM,5.51 nM
CC(C)[C@H](NS(=O)(=O)c1ccc(-c2ncc(-c3ccc(Cl)cc3)s2)cc1)C(=O)O [Compound B-5],5.24 nM,25.7 nM,14.8 nM,1.33 nM,6.18 nM
COc1ccc(-c2cnc(-c3ccc(S(=O)(=O)N[C@@H](C(=O)O)C(C)C)cc3)s2)cc1 [Compound B-6],0.347 nM,6.47 nM,10 nM,0.37 nM,1.16 nM
CC(C)[C@@H](NS(=O)(=O)c1ccc(-c2ncc(-c3ccc(F)cc3)s2)cc1)C(=O)O [Compound B-8],1.38 nM,10.5 nM,11.1 nM,1.96 nM,9.53 nM
CC(C)[C@H](NS(=O)(=O)c1ccc(-c2ncc(-c3ccc(F)cc3)s2)cc1)C(=O)O [Compound B-9],8.05 nM,12.5 nM,55 nM,1.33 nM,13.1 nM
CC(C)[C@@H](NS(=O)(=O)c1ccc(-c2ncc(-c3ccc(Br)cc3)s2)cc1)C(=O)O [Compound B-10],0.373 nM,31.7 nM,3.96 nM,0.643 nM,3.38 nM
O=C(O)[C@@H](Cc1ccccc1)NS(=O)(=O)c1ccc(-c2ncc(-c3ccccc3)s2)cc1 [Compound B-11],1.08 nM,26.1 nM,16.2 nM,2.4 nM,6.34 nM
O=C(O)[C@H](Cc1ccccc1)NS(=O)(=O)c1ccc(-c2ncc(-c3ccccc3)s2)cc1 [Compound B-12],1.44 nM,25.9 nM,66.9 nM,3.69 nM,9.3 nM
O=C(O)[C@@H](Cc1ccccc1)NS(=O)(=O)c1ccc(-c2ncc(-c3ccc(Cl)cc3)s2)cc1 [Compound B-13],1.2 nM,92.3 nM,11.8 nM,1.41 nM,5.08 nM
O=C(O)[C@H](Cc1ccccc1)NS(=O)(=O)c1ccc(-c2ncc(-c3ccc(Cl)cc3)s2)cc1 [Compound B-14],2.56 nM,72.8 nM,19.5 nM,2.49 nM,11 nM
O=C(O)[C@@H](Cc1ccccc1)NS(=O)(=O)c1ccc(-c2ncc(-c3ccc(F)cc3)s2)cc1 [Compound B-17],2.09 nM,22.4 nM,22.6 nM,3.21 nM,12.1 nM
C[C@@H](NS(=O)(=O)c1ccc(-c2ncc(-c3ccccc3)s2)cc1)C(=O)O [Compound B-21],1.47 nM,58.2 nM,19.9 nM,5.86 nM,22 nM
COc1ccc(-c2cnc(-c3ccc(S(=O)(=O)N[C@H](C)C(=O)O)cc3)s2)cc1 [Compound B-23],0.479 nM,15.4 nM,16.2 nM,1.37 nM,2.04 nM
COc1ccc(-c2cnc(-c3ccc(S(=O)(=O)N[C@@H](C)C(=O)O)cc3)s2)cc1 [Compound B-24],6.3 nM,18.5 nM,109 nM,1.5 nM,8.4 nM
C[C@@H](NS(=O)(=O)c1ccc(-c2ncc(-c3ccc(Cl)cc3)s2)cc1)C(=O)O [Compound B-25],0.484 nM,51.7 nM,5.69 nM,0.949 nM,4.82 nM
C[C@H](NS(=O)(=O)c1ccc(-c2ncc(-c3ccc(Cl)cc3)s2)cc1)C(=O)O [Compound B-26],8.3 nM,42.5 nM,54.4 nM,1.24 nM,14.1 nM
C[C@@H](NS(=O)(=O)c1ccc(-c2ncc(-c3ccc(F)cc3)s2)cc1)C(=O)O [Compound B-27],0.901 nM,25.2 nM,13.3 nM,3.29 nM,15.3 nM
C[C@@H](NS(=O)(=O)c1ccc(-c2ncc(-c3ccc(Br)cc3)s2)cc1)C(=O)O [Compound B-29],0.313 nM,45.2 nM,5.82 nM,0.47 nM,2.6 nM
CC(C)C[C@@H](NS(=O)(=O)c1ccc(-c2ncc(-c3ccc(Cl)cc3)s2)cc1)C(=O)O [Compound B-31],3.57 nM,144 nM,35.7 nM,4.55 nM,32.6 nM
